How the values were obtained:
Assay in all cases: relative viability (nuclei count vs DMSO), 5 days (fraction); higher = more cells survive
Entinostat + Navitoclax = compound: Nc1ccccc1NC(=O)c1ccc(CNC(=O)OCc2cccnc2)cc1 [Entinostat] + CC1(C)CCC(c2ccc(Cl)cc2)=C(CN2CCN(c3ccc(C(=O)NS(=O)(=O)c4ccc(N[C@H](CCN5CCOCC5)CSc5ccccc5)c(S(=O)(=O)C(F)(F)F)c4)cc3)CC2)C1 [Navitoclax] (partner 0.5 µM)
Method in brief: (§1)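 One day after seeding in 1536-well plates, lung cancer cell lines were dosed by pin tool. Dosing was either single-drug or a fixed anchor-drug dose plus five library-drug doses (not always all listed) in √10 steps. After 5 days, nuclei were stained in one fix-and-stain step and counted on 4× images, and relative viability is the nuclei count of treated wells over that of vehicle wells, given as the median of duplicate plates.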

Entinostat + Phenformin = compound: Nc1ccccc1NC(=O)c1ccc(CNC(=O)OCc2cccnc2)cc1 [Entinostat] + N=C(N)NC(=N)NCCc1ccccc1 [Phenformin] (partner 250 µM)
Method in brief: as §1

[1] = compound: C1COCCN1C2=NC(=NC3=C2OC4=C3C=CC=N4)C5=CC(=CC=C5)NC(=O)C6=CN=C(C=C6)N + CC(C)C[C@H](NC(=O)[C@H](Cc1ccccc1)NC(=O)c1cnccn1)B(O)O [Bortezomib] (partner 0.002 µM)
Method in brief: as §1

[2] = compound: C1COCCN1C2=NC(=NC3=C2OC4=C3C=CC=N4)C5=CC(=CC=C5)NC(=O)C6=CN=C(C=C6)N + C[C@@H](Oc1cc(-c2cnn(C3CCNCC3)c2)cnc1N)c1c(Cl)ccc(F)c1Cl [Crizotinib] (partner 1 µM)
Method in brief: as §1

How did the relative viability (Entinostat + Navitoclax; first compound 0.02 µM) turn out when UMC-11 was run?
Its relative viability is 0.29.

And the relative viability (Entinostat + Navitoclax; first compound 0.06325 µM)?
The relative viability was 0.302.

What about the relative viability (Entinostat + Navitoclax; first compound 0.2 µM) of the same cell line?
Its relative viability is 0.25.

What about the relative viability (Entinostat + Navitoclax; first compound 0.6325 µM) of the same cell line?
Its relative viability is 0.117.

What about the relative viability (Entinostat + Navitoclax; first compound 2 µM) of the same cell line?
Its relative viability is 0.115.

What about the relative viability (Entinostat + Phenformin; first compound 0.02 µM) of the same cell line?
The relative viability was 0.307.

And the relative viability (Entinostat + Phenformin; first compound 0.06325 µM)?
The relative viability was 0.334.

And the relative viability (Entinostat + Phenformin; first compound 0.2 µM)?
Its relative viability is 0.347.

What about the relative viability (Entinostat + Phenformin; first compound 0.6325 µM) of the same cell line?
The relative viability was 0.21.

And the relative viability (Entinostat + Phenformin; first compound 2 µM)?
The relative viability was 0.188.

And the relative viability ([1]; first compound 0.02 µM)?
Its relative viability is 0.79.

And the relative viability ([1]; first compound 0.06325 µM)?
Its relative viability is 0.838.

And the relative viability ([1]; first compound 0.2 µM)?
The relative viability was 0.669.

And the relative viability ([1]; first compound 0.6325 µM)?
Its relative viability is 1.08.

What about the relative viability ([1]; first compound 2 µM) of the same cell line?
The relative viability was 0.519.

And the relative viability ([2]; first compound 0.02 µM)?
Its relative viability is 0.564.

What about the relative viability ([2]; first compound 0.06325 µM) of the same cell line?
Its relative viability is 0.59.

And the relative viability ([2]; first compound 0.2 µM)?
The relative viability was 0.677.

And the relative viability ([2]; first compound 0.6325 µM)?
Its relative viability is 0.672.

What about the relative viability ([2]; first compound 2 µM) of the same cell line?
The relative viability was 0.498.

Reference: the supplement of paper PMC10307832
